Reference: patent US8841349B2, “Stabilize compositions based on monoalkyl glycerol ethers and aromatic alcohols” (Air Liquide Sante (International), priority 2003, dated 2014)

Test system: mixed suspension (Group 5) of the four test microbe groups
Assay: Koko test (pack preservation, repeated inoculation challenge) of aqueous working solutions in Ringer's solution
Type: cell-based
Settings: for Koko results: microbial growth of streaks, inoculation cycle 1: inoculation cycle 1; Ringer's solution as product; use concentration 0.5% for 1), 0.6% for 2), 2.0% for 3) and 4); for Koko results: microbial growth of streaks, inoculation cycle 2: inoculation cycle 2; Ringer's solution as product; use concentration 0.5% for 1), 0.6% for 2), 2.0% for 3) and 4); for Koko results: microbial growth of streaks, inoculation cycle 3: inoculation cycle 3; Ringer's solution as product; use concentration 0.5% for 1), 0.6% for 2), 2.0% for 3) and 4); for Koko results: microbial growth of streaks, inoculation cycle 4: inoculation cycle 4; Ringer's solution as product; use concentration 0.5% for 1), 0.6% for 2), 2.0% for 3) and 4); for Koko results: microbial growth of streaks, inoculation cycle 5: inoculation cycle 5; Ringer's solution as product; use concentration 0.5% for 1), 0.6% for 2), 2.0% for 3) and 4); for Koko results: microbial growth of streaks, inoculation cycle 6: inoculation cycle 6; Ringer's solution as product; use concentration 0.5% for 1), 0.6% for 2), 2.0% for 3) and 4)
Method: Unless expressly stated otherwise, all of the percentages are percentages by weight. Aqueous working solutions were investigated using Ringer's solution as product in the Koko test.
Using the described method, the effectiveness of chemical preservatives (stabilizer compositions) is tested with regard to the pack preservation for cosmetic formulations. For this purpose, the compositions to be investigated are added in varying concentrations to the unstabilized samples in various experimental batches. A continuous microbial burden is achieved by periodically inoculating the experimental batches. In parallel to the inoculation, streaks of each of the individual batches are in each case made immediately beforehand. Assessment is made by reference to the microbial growth of the streaks.
• CSA (casein peptone soya flour peptone agar) • SA (Sabouraud dextrose agar) • SA slant tube • CSA+TLSH (No. 4) • SA-TLSH (No. 10) • NaCl (physiological sodium chloride solution, […]) • TLSH (disinhibiting medium for bacteria=Tween 80+lecithin+saponin+histidine)
The test microbe used was the mixed suspension (Group 5) of the following four test microbe groups.
Cultivation of the Test Microbes • Bacteria: streaking using a sterile glass rod on CS agar • Yeasts: streaking using a sterile glass rod on SA agar • Fungi: Aspergillus niger is transferred to 4 SA slant tubes • Penicillium funiculosum is transferred to SA agar plates
All of the test microbes are incubated for one week at 25° C.±2° C. The test microbes are replaced at intervals of 3 to 4 months.
The bacteria are rinsed off with 5 ml of NaCl solution in each case, filtered through a glass funnel containing glass wool into a 100 ml measuring cylinder and made up to 100 ml with NaCl. The bacterial suspensions have a titre of about 10^9 CFU/ml.
Three Aspergillus niger slant tubes are each shaken with 3 ml of NaCl solution on a Heldolph stirrer and introduced through a glass funnel containing glass wool. The yeast Candida albicans is rinsed off with 5 ml of NaCl and likewise poured through the glass funnel. 5 ml of a Penicillium funiculosum suspension are added to this mixture and made up to 100 ml with NaCl. The fungal suspension has a titre of about 10^5-9 CFU/ml.
The inoculation solution actually used is prepared as described above (Groups 1 to 4). After rinsing off, these are mixed and then made up to 100 ml with NaCl.
The microbial suspension was transferred to sterile glass-stoppered bottles containing glass beads and shaken for 5 min at a shaking frequency (to-and-fro movement) of 200 units/min. The microbial content of the mixed suspension is 10^9 CFU/ml. The suspension should be used on the day of preparation, but can also be used after 24 hours upon storage in a refrigerator.
In separate batches, 25 g of the cosmetic to be tested are mixed in each case with the compositions to be investigated in varying concentrations. The growth control used in each case is an unstabilized product sample. The test batches are streaked onto CSA/TLSH and SA/TLSH once per week following thorough stirring using a sterile glass rod, the first streaking being carried out directly prior to reinoculation. All of the samples are inoculated with 0.1 ml of the respective microbial suspension and thoroughly stirred.
The microbial growth of the streaks is assessed after incubation for three days at 25° C.±2° C. To be on the safe side, negative streaks are observed for a further two days and reassessed. The stabilizing action of the individual product concentration is assessed in a semiqualitative method by means of the growth of the individual streaks.
The test is usually carried out over six inoculation cycles and terminated after massive growth on two occasions.
A composition is considered good if it exists under the laboratory conditions given above for a period of six weeks without microbial attack of the sample batches, i.e. even after the sixth inoculation, no microbial growth can be detected.

CC1(C)C(=O)N(CO)C(=O)N1CO [2), dimethyldimethylolhydantoin]
+B: Koko results: microbial growth of streaks, inoculation cycle 1
++B: Koko results: microbial growth of streaks, inoculation cycle 2 | Koko results: microbial growth of streaks, inoculation cycle 3 | Koko results: microbial growth of streaks, inoculation cycle 4 | Koko results: microbial growth of streaks, inoculation cycle 5 | Koko results: microbial growth of streaks, inoculation cycle 6

O=C([O-])CNCO.[Na+] [1), sodium hydroxymethyl-glycinate]
+Y: Koko results: microbial growth of streaks, inoculation cycle 1 | Koko results: microbial growth of streaks, inoculation cycle 2 | Koko results: microbial growth of streaks, inoculation cycle 3 | Koko results: microbial growth of streaks, inoculation cycle 4 | Koko results: microbial growth of streaks, inoculation cycle 5 | Koko results: microbial growth of streaks, inoculation cycle 6
